The source of these data is patent US20200131180A1, “POSITIVE ALLOSTERIC MODULATORS OF THE MUSCARINIC ACETYLCHOLINE RECEPTOR M1” (Vanderbilt University, priority 2018, published 2020).

For orientation: EC50 means the concentration needed to bring the measured effect to its halfway point. As a reminder, the Emax is the size of the effect at its maximum, as opposed to the concentration needed.

For this assay, the target named is T1, human mAChR M1 (Homo sapiens, UniProt P11229).
T1 sequence (P11229 1-460): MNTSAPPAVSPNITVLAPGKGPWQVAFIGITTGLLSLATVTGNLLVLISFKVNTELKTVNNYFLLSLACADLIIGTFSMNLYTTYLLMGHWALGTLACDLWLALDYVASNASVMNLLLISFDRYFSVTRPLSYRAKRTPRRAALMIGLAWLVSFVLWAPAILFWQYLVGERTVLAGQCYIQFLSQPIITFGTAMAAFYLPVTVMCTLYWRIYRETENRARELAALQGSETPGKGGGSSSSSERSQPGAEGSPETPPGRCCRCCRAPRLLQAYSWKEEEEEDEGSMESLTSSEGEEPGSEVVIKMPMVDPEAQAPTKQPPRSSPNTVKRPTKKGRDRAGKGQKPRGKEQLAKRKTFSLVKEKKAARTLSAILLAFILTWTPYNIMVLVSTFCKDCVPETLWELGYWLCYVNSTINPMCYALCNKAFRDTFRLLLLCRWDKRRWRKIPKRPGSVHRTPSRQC
The assay can be described thus: mAChR M1 cell-based functional assay (calcium mobilization, PAM activity). As to conditions: CHO-K1 cells expressing hM1, calcium flux (Fluo-4); for EC50: concentration-dependent increase in the EC20 acetylcholine response; for Emax: potentiation of EC20 acetylcholine response. The source says: Chinese hamster ovary (CHO-K1) cells stably expressing rat (r)M1 were purchased from the American Type Culture Collection and cultured according to their indicated protocol. CHO cells stably expressing human (h)M2, hM3, and hM5 were described previously (Levey, et al., 1991); hM1 and hM4 cDNAs were purchased from Missouri S&T cDNA Resource; rM4 cDNA was provided by T. I. Bonner (National Institutes of Health, Bethesda, Md.). rM2 and rM3 were cloned from a rat brain cDNA library and sequence verified. hM1, rM2, rM3, hM4, and rM4 cDNAs were used to stably transfect CHO-K1 cells purchased from the American Type Culture Collection using Lipofectamine 2000. To make stable rM2, hM2, rM3, hM4, and rM4 cell lines for use in calcium mobilization assays, these cells also were stably transfected with a chimeric G-protein (Gqi5) (provided by B. R. Conklin, University of California, San Francisco) using Lipofectamine 2000. rM1, hM1, rM3, hM3, rM5, and hM5 cells were grown in Ham's F-12 medium containing 10% heat-inactivated fetal bovine serum (FBS), 20 mM HEPES, and 50 μg/mL G418 sulfate. rM2-Gqi5, hM2-Gqi5, and hM4-Gqi5 cells were grown in the same medium also containing 500 μg/mL Hygromycin B. Stable rM4-Gqi5 cells were grown in DMEM containing 10% heat-inactivated FBS, 20 mM HEPES, 400 μg/mL G418 sulfate, and 500 μg/mL Hygromycin B.
For high throughput measurement of agonist-evoked increases in intracellular calcium, CHO-K1 cells stably expressing muscarinic receptors were plated in growth medium lacking G418 and hygromycin at 15,000 cells/20 μL/well in Greiner 384-well black-walled, tissue culture (TC)-treated, clear-bottom plates (VWR). Cells were incubated overnight at 37° C. and 5% CO2. The next day, cells were washed using an ELX 405 (BioTek) with four washes (80 μL) of assay buffer then aspirated to 20 μL. Next, 20 μL of 16 μM Fluo-4/acetoxymethyl ester (Invitrogen, Carlsbad, Calif.) prepared as a 2.3 mM stock in DMSO and mixed in a 1:1 ratio with 10% (w/v) Pluronic F-127 and diluted in assay buffer was added to the wells and the cell plates were incubated for 50 min at 37° C. and 5% CO2. Dye was removed by washing with the ELX 405 (four 80 μL washes of assay buffer) then aspirated to 20 μL. Compound master plates were formatted in an 11 point CRC format (1:3 dilutions) in 100% DMSO with a starting concentration of 10 mM using the BRAVO liquid handler (Agilent). Test compound CRCs were then transferred to daughter plates (240 nL) using the Echo acoustic plate reformatter (Labcyte, Sunnyvale, Calif.) and then diluted into assay buffer (40 μL) to a 2× stock using a Thermo Fisher Combi (Thermo Fisher Scientific, Waltham, Mass.).
Calcium flux was measured using the Functional Drug Screening System (FDSS) 6000 (Hamamatsu Corporation, Tokyo, Japan) as an increase in the fluorescent static ratio. Compounds were applied to cells (20 μL, 2×) using the automated system of the FDSS 6000 at 4 s into the 300 s protocol and the data were collected at 1 Hz. At 144 s into the 300s protocol, 10 μL of an EC20 concentration of the muscarinic receptor agonist acetylcholine was added (5×), followed by the addition of 12 μL an EC80 concentration of acetylcholine at the 230 s time point (5×). Agonist activity was analyzed as a concentration-dependent increase in calcium mobilization upon compound addition. Emax values for agonist activity are expressed relative to the maximum for acetylcholine. Positive allosteric modulator activity was analyzed as a concentration-dependent increase in the EC20 acetylcholine response. Antagonist activity was analyzed as a concentration-dependent decrease in the EC80 acetylcholine response. Concentration-response curves were generated using a four-parameter logistical equation in XLfit curve fitting software (IDBS, Bridgewater, N.J.) for Excel (Microsoft, Redmond, Wash.) or Prism (GraphPad Software, Inc., San Diego, Calif.). […]
For orientation: Calcium flux is commonly read through the fluorescence of an indicator in the cells.

With `Cn1ccc(-c2ccc(Cc3cc(C(=O)NC4CCOCC4)c4nccn4c3)cc2)n1` [compound 1, 6-[[4-(1-methylpyrazol-3-yl)phenyl]methyl]-N-tetrahydropyran-4-yl-imidazo[1,2-a]pyridine-8-carboxamide], the EC50 is 6.34 µM and the Emax stood at 68%.
For `Cn1ccc(-c2ccc(Cc3cc(C(=O)N[C@@H]4CCCC[C@H]4O)c4nccn4c3)cc2)n1` [compound 2, N-[(1R,2R)-2-hydroxycyclohexyl]-6-[[4-(1-methylpyrazol-3-yl)phenyl]methyl]imidazo[1,2-a]pyridine-8-carboxamide], the EC50 was determined as 0.313 µM and the Emax is 77%.
The matching figures for `Cn1ccc(-c2ccc(Cc3cc(C(=O)NC4CC5(COC5)C4)c4nccn4c3)cc2)n1` [compound 3, 6-[[4-(1-methylpyrazol-3-yl)phenyl]methyl]-N-(2-oxaspiro[3.3]heptan-6-yl)imidazo[1,2-a]pyridine-8-carboxamide]: 4.29 µM and 76%.
The matching figures for `Cn1ccc(-c2ccc(Cc3cc(C(=O)N[C@@H]4CCC[C@H]4O)c4nccn4c3)cc2)n1` [compound 4, N-[(1R,2R)-2-hydroxycyclopentyl]-6-[[4-(1-methylpyrazol-3-yl)phenyl]methyl]imidazo[1,2-a]pyridine-8-carboxamide]: 1.5 µM and 80%.
Take `Cn1ccc(-c2ccc(Cc3cc(C(=O)N[C@@H]4CCOC[C@H]4O)c4nccn4c3)cc2)n1` [compound 5, N-[(3S,4R)-3-hydroxytetrahydropyran-4-yl]-6-[[4-(1-methylpyrazol-3-yl)phenyl]methyl]imidazo[1,2-a]pyridine-8-carboxamide]: the EC50 was found to be 0.384 µM and the Emax amounted to 78%.
The corresponding values for `Cn1ccc(-c2ccc(Cc3cc(C(=O)N[C@H]4CCOC[C@@H]4O)c4ncnn4c3)cc2)n1` [compound 6, N-[(3R,4S)-3-hydroxytetrahydropyran-4-yl]-6-[[4-(1-methylpyrazol-3-yl)phenyl]methyl]-[1,2,4]triazolo[1,5-a]pyridine-8-carboxamide] are 0.79 µM and 85%.
For the compound `Cn1ccc(-c2ccc(Cc3cc(C(=O)N[C@H]4CCCC[C@@H]4O)c4ncnn4c3)cc2)n1` [compound 7, N-[(1S,2S)-2-hydroxycyclohexyl]-6-[[4-(1-methylpyrazol-3-yl)phenyl]methyl]-[1,2,4]triazolo[1,5-a]pyridine-8-carboxamide], the EC50 worked out at 0.483 µM and the Emax was 86%.
For `Cn1ccc(-c2ccc(Cc3cc(C(=O)NC4CCOCC4)c4ncnn4c3)cc2)n1` [compound 8, 6-[[4-(1-methylpyrazol-3-yl)phenyl]methyl]-N-tetrahydropyran-4-yl-[1,2,4]triazolo[1,5-a]pyridine-8-carboxamide], the Emax was 53%.
Take `Cn1ccc(-c2ccc(Cc3cc(C(=O)NC4CC5(COC5)C4)c4ncnn4c3)cc2)n1` [compound 9, 6-[[4-(1-methylpyrazol-3-yl)phenyl]methyl]-N-(2-oxaspiro[3.3]heptan-6-yl)-[1,2,4]triazolo[1,5-a]pyridine-8-carboxamide]: the EC50 is 4.86 µM and the Emax amounted to 66%.
Regarding `Cn1ccc(-c2ccc(Cc3cc(C(=O)N[C@@H]4CC[C@H]4O)c4ncnn4c3)cc2)n1` [compound 10, N-[(1R,2R)-2-hydroxycyclobutyl]-6-[[4-(1-methylpyrazol-3-yl)phenyl]methyl]-[1,2,4]triazolo[1,5-a]pyridine-8-carboxamide], the EC50 is 4.07 µM and the Emax was 74%.
The corresponding values for `Cn1ccc(-c2ccc(Cc3cc(C(=O)N[C@H]4CCC[C@@H]4O)c4ncnn4c3)cc2)n1` [compound 11, N-[(1S,2S)-2-hydroxycyclopentyl]-6-[[4-(1-methylpyrazol-3-yl)phenyl]methyl]-[1,2,4]triazolo[1,5-a]pyridine-8-carboxamide] are 2.54 µM and 88%.
`Cn1cc(-c2ccc(Cc3cc(C(=O)N[C@H]4CCOC[C@@H]4O)c4ncnn4c3)cn2)cn1` [compound 12, N-[(3R,4S)-3-hydroxytetrahydropyran-4-yl]-6-[[6-(1-methylpyrazol-4-yl)-3-pyridyl]methyl]-[1,2,4]triazolo[1,5-a]pyridine-8-carboxamide]: the EC50 was found to be 0.903 µM and the Emax came to 83%.
The matching figures for `Cn1cc(-c2ccc(Cc3cc(C(=O)N[C@H]4CCCC[C@@H]4O)c4ncnn4c3)cn2)cn1` [compound 13, N-[(1S,2S)-2-hydroxycyclohexyl]-6-[[6-(1-methylpyrazol-4-yl)-3-pyridyl]methyl]-[1,2,4]triazolo[1,5-a]pyridine-8-carboxamide]: 0.729 µM and 84%.
On to `Cn1cc(-c2ccc(Cc3cc(C(=O)NC4CCOCC4)c4ncnn4c3)cn2)cn1` [compound 14, 6-[[6-(1-methylpyrazol-4-yl)-3-pyridyl]methyl]-N-tetrahydropyran-4-yl-[1,2,4]triazolo[1,5-a]pyridine-8-carboxamide], for which the Emax was 45%.
Regarding `Cn1cc(-c2ccc(Cc3cc(C(=O)NC4CC5(COC5)C4)c4ncnn4c3)cn2)cn1` [compound 15, 6-[[6-(1-methylpyrazol-4-yl)-3-pyridyl]methyl]-N-(2-oxaspiro[3.3]heptan-6-yl)-[1,2,4]triazolo[1,5-a]pyridine-8-carboxamide], the Emax was 65%.
Still for that read-out and setting: the value for `Cn1cc(-c2ccc(Cc3cc(C(=O)N[C@@H]4CC[C@H]4O)c4ncnn4c3)cn2)cn1` [compound 16, N-[(1R,2R)-2-hydroxycyclobutyl]-6-[[6-(1-methylpyrazol-4-yl)-3-pyridyl]methyl]-[1,2,4]triazolo[1,5-a]pyridine-8-carboxamide] was 67%.
As for `Cn1cc(-c2ccc(Cc3cc(C(=O)N[C@H]4CCC[C@@H]4O)c4ncnn4c3)cn2)cn1` [compound 17, N-[(1S,2S)-2-hydroxycyclopentyl]-6-[[6-(1-methylpyrazol-4-yl)-3-pyridyl]methyl]-[1,2,4]triazolo[1,5-a]pyridine-8-carboxamide], the EC50 worked out at 3.77 µM and the Emax stood at 86%.
The corresponding values for `O=C(N[C@H]1CCOC[C@@H]1O)c1cc(Cc2ccc(-n3cccn3)cc2)cc2ncnn12` [compound 18, N-[(3R,4S)-3-hydroxytetrahydropyran-4-yl]-7-[(4-pyrazol-1-ylphenyl)methyl]-[1,2,4]triazolo[1,5-a]pyridine-5-carboxamide] are 4.44 µM and 81%.
Turning to `O=C(N[C@H]1CCCC[C@@H]1O)c1cc(Cc2ccc(-n3cccn3)cc2)cn2cnnc12` [compound 19, N-[(1S,2S)-2-hydroxycyclohexyl]-6-[(4-pyrazol-1-ylphenyl)methyl]-[1,2,4]triazolo[4,3-a]pyridine-8-carboxamide], the EC50 was 1.71 µM and the Emax was 74%.
